Experimental data reported in patent publication US10150760B2, “Compounds for use in preparing heterocyclic triazole agonists of the APJ receptor” (AMGEN INC., priority 2016, dated 2018).

Biological target: human APJ receptor (Homo sapiens (Human), UniProt P35414)
Assay: [35S]GTPγS binding assay on membranes from CHO cells stably expressing human APJ receptor
Format: biochemical
Conditions: read-out: Activity hAPJ SPA EC50 IP
Outline: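 Membranes from CHO cells stably expressing human APJ incubated with ligand, 0.2 nM [35S]GTPγS and WGA SPA beads in HEPES pH 7.5 with 5 mM MgCl2, 200 mM NaCl, 3 μM GDP, 90 min at RT. Nonspecific binding defined with 100 μM GTPγS; EC50 by non-linear regression.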

human APJ receptor, sequence (P35414 whole entry): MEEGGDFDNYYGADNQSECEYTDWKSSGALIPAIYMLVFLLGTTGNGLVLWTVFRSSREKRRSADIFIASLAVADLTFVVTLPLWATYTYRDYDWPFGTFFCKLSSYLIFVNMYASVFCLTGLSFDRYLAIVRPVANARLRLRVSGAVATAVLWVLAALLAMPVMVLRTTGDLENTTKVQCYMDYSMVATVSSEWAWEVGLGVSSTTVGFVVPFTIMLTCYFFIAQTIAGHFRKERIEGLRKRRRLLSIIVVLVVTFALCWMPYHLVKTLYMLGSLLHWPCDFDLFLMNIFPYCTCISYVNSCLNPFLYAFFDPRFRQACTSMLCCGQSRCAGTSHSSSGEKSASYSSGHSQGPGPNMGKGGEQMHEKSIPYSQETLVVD

Row | Compound | EC50 [nM]
1 | (2S,3R)-3-(5-chloropyrimidin-2-yl)-N-(4-(3,5-dibromo-2,6-dimethoxyphenyl)-5-((R)-tetrahydrofuran-3-yl)-4H-1,2,4-triazol-3-yl)butane-2-sulfonamide or (2S,3R)-3-(5-chloropyrimidin-2-yl)-N-(4-(3,5-dibromo-2,6-dimethoxyphenyl)-5-((S)-tetrahydrofuran-3-yl)-4H-1,2,4-triazol-3-yl)butane-2-sulfonamide [Example 331.0] | 3500
2 | COc1cccc(OC)c1-n1c(NS(=O)(=O)[C@@H](C)[C@H](C)c2ncc(Cl)cn2)nnc1[C@H]1CCN(C(=O)OC(C)(C)C)C1 (stereo in doubt) [Example 42.0, tert-butyl (3S)-3-(5-((((1S,2R)-2-(5-chloro-2-pyrimidinyl)-1-methylpropypsulfonyl)amino)-4-(2,6-dimethoxyphenyl)-4H-1,2,4-triazol-3-yl)-1-pyrrolidinecarboxylate or tert-butyl (3R)-3-(5-((((1S,2R)-2-(5-chloro-2-pyrimidinyl)-1-methylpropypsulfonyl)amino)-4-(2,6-dimethoxyphenyl)-4H-1,2,4-triazol-3-yl)-1-pyrrolidinecarboxylate] | 210
3 | COc1ncnc(OC)c1-n1c(NS(=O)(=O)[C@@H](C)[C@H](C)c2ncc(C)cn2)nnc1[C@H]1CCCO1 (single isomer, unassigned) [Example 69.0, (2S,3R)-N-(4-(4,6-dimethoxypyrimidin-5-yl)-5-((S)-tetrahydrofuran-2-yl)-4H-1,2,4-triazol-3-yl)-3-(5-methylpyrimidin-2-yl)butane-2-sulfonamide or (2S,3R)-N-(4-(4,6-dimethoxypyrimidin-5-yl)-5-((R)-tetrahydrofuran-2-yl)-4H-1,2,4-triazol-3-yl)-3-(5-methylpyrimidin-2-yl)butane-2-sulfonamide] | 82
4 | (2S,3R)-N-(4-(1,3-dimethoxy-2-propanyl)-5-((2R,5R)-5-methyltetrahydro-2-furanyl)-4H-1,2,4-triazol-3-yl)-3-(5-methoxy-2-pyrazinyl)-2-butanesulfonamide or (2S,3R)-N-(4-(1,3-dimethoxy-2-propanyl)-5-((2S,5S)-5-methyltetrahydro-2-furanyl)-4H-1,2,4-triazol-3-yl)-3-(5-methoxy-2-pyrazinyl)-2-butanesulfonamide [Example 376.0] | 120
5 | COc1cccc(OC)c1-n1c(NS(=O)(=O)[C@@H](C)[C@@H](OC(C)C)c2ncc(C)cn2)nnc1[C@@H]1COC(C)(C)C1 (single isomer, unassigned) [Example 412.0, (1S,2S)-N-(4-(2,6-dimethoxyphenyl)-5-((3R)-5,5-dimethyltetrahydro-3-furanyl)-4H-1,2,4-triazol-3-yl)-1-(5-methyl-2-pyrimidinyl)-1-(2-propanyloxy)-2-propanesulfonamide or (1S,2S)-N-(4-(2,6-dimethoxyphenyl)-5-((3S)-5,5-dimethyltetrahydro-3-furanyl)-4H-1,2,4-triazol-3-yl)-1-(5-methyl-2-pyrimidinyl)-1-(2-propanyloxy)-2-propanesulfonamide] | 40
6 | (1R,2S)-N-(5-((R)-2,3-dihydrobenzofuran-3-yl)-4-(2,6-dimethoxyphenyl)-4H-1,2,4-triazol-3-yl)-1-methoxy-1-(5-methylpyrimidin-2-yl)propane-2-sulfonamide or (1R,2S)-N-(5-((S)-2,3-dihydrobenzofuran-3-yl)-4-(2,6-dimethoxyphenyl)-4H-1,2,4-triazol-3-yl)-1-methoxy-1-(5-methylpyrimidin-2-yl)propane-2-sulfonamide [Example 239.0] | 33
7 | COc1cccc(OC)c1-n1c(NS(=O)(=O)CCc2ccc(F)cc2C#N)nnc1[C@@H]1CCCO1 (single isomer, unassigned) [Example 148.0, (S)-2-(2-Cyano-4-fluorophenyl)-N-(4-(2,6-dimethoxyphenyl)-5-(tetrahydrofuran-2-yl)-4H-1,2,4-triazol-3-yl)ethanesulfonamide or (R)-2-(2-cyano-4-fluorophenyl)-N-(4-(2,6-dimethoxyphenyl)-5-(tetrahydrofuran-2-yl)-4H-1,2,4-triazol-3-yl)ethanesulfonamide] | 680
8 | (1S,2S)-1-isopropoxy-1-(5-methylpyrazin-2-yl)-N-(5-((2S,5S)-5-methyltetrahydrofuran-2-yl)-4-(tetrahydro-2H-pyran-4-yl)-4H-1,2,4-triazol-3-yl)propane-2-sulfonamide or (1S,2S)-1-isopropoxy-1-(5-methylpyrazin-2-yl)-N-(5-((2R,5R)-5-methyltetrahydrofuran-2-yl)-4-(tetrahydro-2H-pyran-4-yl)-4H-1,2,4-triazol-3-yl)propane-2-sulfonamide [Example 262.0] | > 4200
9 | CO[C@H]1CCC[C@@H](OC)[C@@H]1n1c(NS(=O)(=O)[C@@H](C)[C@H](C)c2ncc(C)cn2)nnc1[C@@H]1CCCO1 (single isomer, unassigned) [Example 3.0, (2S,3R)-N-(4-((1r,2R,6S)-2,6-Dimethoxycyclohexyl)-5-((2S)-tetrahydro-2-furanyl)-4H-1,2,4-triazol-3-yl)-3-(5-methyl-2-pyrimidinyl)-2-butanesulfonamide or (2S,3R)-N-(4-((1r,2R,6S)-2,6-dimethoxycyclohexyl)-5-((2R)-tetrahydro-2-furanyl)-4H-1,2,4-triazol-3-yl)-3-(5-methyl-2-pyrimidinyl)-2-butanesulfonamide] | 1200
10 | COCCn1c(NS(=O)(=O)[C@@H](C)[C@H](OC)c2ncc(Cl)cn2)nnc1[C@@H]1COCCO1 (single isomer, unassigned) [Example 311.0, (1R,2S)-N-(5-((R)-1,4-dioxan-2-yl)-4-(2-methoxyethyl)-4H-1,2,4-triazol-3-yl)-1-(5-chloropyrimidin-2-yl)-1-methoxypropane-2-sulfonamide or (1R,2S)-N-(5-((S)-1,4-dioxan-2-yl)-4-(2-methoxyethyl)-4H-1,2,4-triazol-3-yl)-1-(5-chloropyrimidin-2-yl)-1-methoxypropane-2-sulfonamide] | 1700
11 | (1R,2S)-1-(5-chloro-2-pyrimidinyl)-N-(4-(1,3-dimethoxy-2-propanyl)-5-((3S)-tetrahydro-3-furanyl)-4H-1,2,4-triazol-3-yl)-1-methoxy-2-propanesulfonamide or (1R,2S)-1-(5-chloro-2-pyrimidinyl)-N-(4-(1,3-dimethoxy-2-propanyl)-5-((3R)-tetrahydro-3-furanyl)-4H-1,2,4-triazol-3-yl)-1-methoxy-2-propanesulfonamide [Example 305.0] | 740
12 | COc1cccc(OC)c1-n1c(NS(=O)(=O)[C@@H](C)[C@H](C)c2ncc(C)cn2)nnc1[C@H]1CCCOC1 (single isomer, unassigned) [Example 58.0, (2S,3R)-N-(4-(2,6-dimethoxyphenyl)-5-((R)-tetrahydro-2H-pyran-3-yl)-4H-1,2,4-triazol-3-yl)-3-(5-methylpyrimidin-2-yl)butane-2-sulfonamide or (2S,3R)-N-(4-(2,6-dimethoxyphenyl)-5-((S)-tetrahydro-2H-pyran-3-yl)-4H-1,2,4-triazol-3-yl)-3-(5-methylpyrimidin-2-yl)butane-2-sulfonamide] | 120
